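Five compound concentrations were applied to cells in 96-well plates for 48 hours; endpoints were derived by simple linear interpolation of the resulting dose-response curve. Here, GI50 denotes the concentration required for 50% inhibition of growth. TGI denotes the concentration required for complete inhibition of growth.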
Columns and labels:
Test in all cases: inhibition of tumour cell growth, NCI panel, 48 h
SF-539 CNS = tested on: SF-539 CNS
NCI-H460 lung = tested on: NCI-H460 lung
TK-10 renal = tested on: TK-10 renal
SW-620 colon = tested on: SW-620 colon
EKVX NSCLC = tested on: EKVX NSCLC
OVCAR-8 ovarian = tested on: OVCAR-8 ovarian
MDA-MB-435 = tested on: MDA-MB-435
RPMI-8226 leukemia = tested on: RPMI-8226 leukemia
SF-295 CNS = tested on: SF-295 CNS
NCI-H522 lung = tested on: NCI-H522 lung
UACC-257 melanoma = tested on: UACC-257 melanoma
K-562 leukemia = tested on: K-562 leukemia
OVCAR-5 ovarian = tested on: OVCAR-5 ovarian
MOLT-4 leukemia = tested on: MOLT-4 leukemia
SNB-19 CNS = tested on: SNB-19 CNS
HOP-62 NSCLC = tested on: HOP-62 NSCLC
HCT-15 colon = tested on: HCT-15 colon
SK-MEL-5 melanoma = tested on: SK-MEL-5 melanoma
HL-60(TB) leukemia = tested on: HL-60(TB) leukemia
T-47D breast = tested on: T-47D breast
SN12C renal = tested on: SN12C renal
PC-3 prostate = tested on: PC-3 prostate
786-0 renal = tested on: 786-0 renal
NCI/ADR-RES ovarian = tested on: NCI/ADR-RES ovarian
HCC-2998 colon = tested on: HCC-2998 colon
OVCAR-4 ovarian = tested on: OVCAR-4 ovarian
SNB-75 CNS = tested on: SNB-75 CNS
M14 melanoma = tested on: M14 melanoma
SF-268 CNS = tested on: SF-268 CNS
HCT-116 colon = tested on: HCT-116 colon
HT29 colon = tested on: HT29 colon
ACHN renal = tested on: ACHN renal
SK-OV-3 ovarian = tested on: SK-OV-3 ovarian
UO-31 renal = tested on: UO-31 renal
HS 578T breast = tested on: HS 578T breast
IGROV1 ovarian = tested on: IGROV1 ovarian
KM12 colon = tested on: KM12 colon
A549 NSCLC = tested on: A549 NSCLC
U251 CNS = tested on: U251 CNS
MCF7 breast = tested on: MCF7 breast
SK-MEL-28 melanoma = tested on: SK-MEL-28 melanoma
MDA-MB-231 breast = tested on: MDA-MB-231 breast

Question: Which results are given for `[O-]c1ccccc1/C=N/C(/N=C/c1ccccc1[O-])c1ccccc1O.[O-]c1ccccc1/C=N/C(/N=C/c1ccccc1[O-])c1ccccc1O.[Zr+4]`?
Answer: GI50 (SF-539 CNS): 17.8 µM; TGI (SF-539 CNS): > 100 µM; GI50 (NCI-H460 lung): 34 µM; TGI (NCI-H460 lung): > 100 µM; GI50 (TK-10 renal): 43.6 µM; TGI (TK-10 renal): > 100 µM; GI50 (SW-620 colon): 26.6 µM; TGI (SW-620 colon): > 100 µM; GI50 (EKVX NSCLC): 46.1 µM; TGI (EKVX NSCLC): > 100 µM; GI50 (OVCAR-8 ovarian): 26.7 µM; TGI (OVCAR-8 ovarian): > 100 µM; GI50 (MDA-MB-435): 28.2 µM; TGI (MDA-MB-435): > 100 µM; GI50 (RPMI-8226 leukemia): 24.5 µM; TGI (RPMI-8226 leukemia): > 100 µM; GI50 (SF-295 CNS): 31.8 µM; TGI (SF-295 CNS): > 100 µM; GI50 (NCI-H522 lung): 10.9 µM; TGI (NCI-H522 lung): 65.3 µM; GI50 (UACC-257 melanoma): 33.4 µM; TGI (UACC-257 melanoma): > 100 µM; GI50 (K-562 leukemia): 44.3 µM; TGI (K-562 leukemia): > 100 µM; GI50 (OVCAR-5 ovarian): 30 µM; TGI (OVCAR-5 ovarian): > 100 µM; GI50 (MOLT-4 leukemia): 25.2 µM; TGI (MOLT-4 leukemia): > 100 µM; GI50 (SNB-19 CNS): 13.1 µM; TGI (SNB-19 CNS): > 100 µM; GI50 (HOP-62 NSCLC): 34.2 µM; TGI (HOP-62 NSCLC): > 100 µM; GI50 (HCT-15 colon): 50.3 µM; TGI (HCT-15 colon): > 100 µM; GI50 (SK-MEL-5 melanoma): 22.4 µM; TGI (SK-MEL-5 melanoma): > 100 µM; GI50 (HL-60(TB) leukemia): 30.6 µM; TGI (HL-60(TB) leukemia): > 100 µM; GI50 (T-47D breast): 28.3 µM; TGI (T-47D breast): > 100 µM; GI50 (SN12C renal): 57.3 µM; TGI (SN12C renal): > 100 µM; GI50 (PC-3 prostate): 50.9 µM; TGI (PC-3 prostate): > 100 µM; GI50 (786-0 renal): 41.6 µM; TGI (786-0 renal): > 100 µM; GI50 (NCI/ADR-RES ovarian): > 100 µM; TGI (NCI/ADR-RES ovarian): > 100 µM; GI50 (HCC-2998 colon): 34.7 µM; TGI (HCC-2998 colon): > 100 µM; GI50 (OVCAR-4 ovarian): 26.1 µM; TGI (OVCAR-4 ovarian): > 100 µM; GI50 (SNB-75 CNS): 3.8 µM; TGI (SNB-75 CNS): 61.1 µM; GI50 (M14 melanoma): 46.6 µM; TGI (M14 melanoma): > 100 µM; GI50 (SF-268 CNS): 28 µM; TGI (SF-268 CNS): > 100 µM; GI50 (HCT-116 colon): 40.8 µM; TGI (HCT-116 colon): > 100 µM; GI50 (HT29 colon): 42 µM; TGI (HT29 colon): > 100 µM; GI50 (ACHN renal): 36.1 µM; TGI (ACHN renal): > 100 µM; GI50 (SK-OV-3 ovarian): 23.1 µM; TGI (SK-OV-3 ovarian): > 100 µM; GI50 (UO-31 renal): 14.4 µM; TGI (UO-31 renal): 98.7 µM; GI50 (HS 578T breast): 12.5 µM; TGI (HS 578T breast): 60 µM; GI50 (IGROV1 ovarian): 56.4 µM; TGI (IGROV1 ovarian): > 100 µM; GI50 (KM12 colon): 38.6 µM; TGI (KM12 colon): > 100 µM; GI50 (A549 NSCLC): 40 µM; TGI (A549 NSCLC): > 100 µM; GI50 (U251 CNS): 36.7 µM; TGI (U251 CNS): > 100 µM; GI50 (MCF7 breast): 35.9 µM; TGI (MCF7 breast): > 100 µM; GI50 (SK-MEL-28 melanoma): 17.1 µM; TGI (SK-MEL-28 melanoma): 78.2 µM; GI50 (MDA-MB-231 breast): 58.2 µM; TGI (MDA-MB-231 breast): > 100 µM

Source: PubChem BioAssay (NCI)
